One data set addresses HDAC6 (Homo sapiens (Human), UniProt Q9UBN7). The data set can be described thus: HDAC6 fluorescence analysis, inhibition of HDAC6 activity. It counts as biochemical. The following applies: HDAC6 0.3 nM solution, substrate 15 μM, fluorescence readout; read-out: IC50, inhibitory effect on HDAC6. As to the method:
HDAC6 fluorescence analysis method was used to detect the inhibitory effect of the compounds on the activity of HDAC6. The specific operation is as follows:
Prepare a 10 mM stock solution of a compound with DMSO. Take 10 μl of stock solution and dilute with 90 μl DMSO to become a 1 mM working solution. […] Add 3 μl of each concentration to 197 μl reaction buffer (20 mM Hepes pH 8.0, 137 mM NaCl, 2.7 mM KCl, 1 mM MgCl2, 0.05% BSA, 0.5 mM TCEP), mix well and add 10 μl to a 384-well plate. In the final reaction system, the concentrations of the compound were 10 μM to 0.51 nM. Duplicate, and add 10 μl 3XHDAC solution (BPS, Cat. 50006, 0.3 nM) to each well, followed by incubating at 23° C. for 20 minutes. Then, add 3× substrate solution (Anaspec, Cat. 61855, 15 μM), centrifuge to mix, and incubate at 23° C. for 90 minutes. Add 30 μl trypsin/SAHA mixture (20 mM Hepes pH 8.0, 100 mM NaCl, 10 mM SAHA, 0.01 mg/ml trypsin), incubate at 23° C. for 60 minutes to terminate the reaction. Finally, read fluorescence data by Envision (390 nm excitation, 460 nm emission). […] Finally, analyze the data by XLfit5 software and calculate the IC50 value of the compound. Vorinostat (SAHA) was a positive reference compound.

The target in the next data set is VEGFR2 (KDR) (Homo sapiens (Human), UniProt P35968). The data set can be described thus: VEGFR2 (KDR) mobility shift assay. It counts as biochemical. The following applies: VEGFR2 0.5 nM, ATP 95 μM, read-out: IC50, inhibitory effect on kinase VEGFR2. As to the method: Detect compounds on VEGFR2 (KDR) by mobility shift assay. The initial test concentration of a compound was 1000 nM, 3 times dilution, 10 concentrations, and detection in duplicate. Nintedanib (Selleckchem, Cat. S1010) was used as the positive control compound. The operation method was briefly described as follows: kinase VEGFR2 (Carna, Cat. 08-191) at the final concentration of 0.5 nM and the test compound were mixed in the Optiplate-384F well plate and incubated for 10 minutes at room temperature. Then, ATP at a final concentration of 95 μM and 3 μM Kinase substrate 22 (Gill Biochemical (glbiochem), Cat. 112393) were added. After mixing, react at room temperature for 30 minutes. Add stop detection solution to terminate the reaction and read the conversion rate with Caliper EZ ReaderlI.
VEGFR2 (KDR), sequence (P35968 790-1356): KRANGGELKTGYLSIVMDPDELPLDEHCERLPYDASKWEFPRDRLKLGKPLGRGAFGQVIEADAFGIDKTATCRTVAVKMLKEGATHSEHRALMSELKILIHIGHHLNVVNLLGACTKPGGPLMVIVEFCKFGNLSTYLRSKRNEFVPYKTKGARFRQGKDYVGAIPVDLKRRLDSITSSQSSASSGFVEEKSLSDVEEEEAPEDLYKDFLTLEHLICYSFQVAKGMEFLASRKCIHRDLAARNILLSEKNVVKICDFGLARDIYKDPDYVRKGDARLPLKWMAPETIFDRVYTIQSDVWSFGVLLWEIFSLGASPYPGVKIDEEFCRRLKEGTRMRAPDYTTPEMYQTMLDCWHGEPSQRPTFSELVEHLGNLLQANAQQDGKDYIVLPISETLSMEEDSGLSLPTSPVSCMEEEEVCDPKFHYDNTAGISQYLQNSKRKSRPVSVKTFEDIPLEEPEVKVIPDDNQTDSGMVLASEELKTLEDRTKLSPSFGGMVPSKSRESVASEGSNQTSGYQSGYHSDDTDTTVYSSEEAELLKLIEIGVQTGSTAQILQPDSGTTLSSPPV
Wherein, Conversion %_sample refers to the conversion rate reading of the sample; Conversion %_min: the average value of the negative control wells, which represents the conversion rate readings of the wells without enzyme activity; Conversion %_max: the average value of the positive control wells, represents the conversion rate readings of the wells without compound inhibition.
Fitting the dose-response curve: Take the log of the concentration as the X-axis, and the percentage of inhibition rate as the Y-axis. The dose response curve was fitted by the analysis software GraphPad Prism 5 with log(inhibitor) vs. response—Variable slope to obtain the inhibitory activity (IC50) of each compound.

Data set [1] is described as follows: Pharmacokinetic experiment in rats after intragastric administration. It counts as in vivo. The following applies: rat, po, female SD rats, 10 mg/kg, plasma. The protocol: The female SD rats were divided into groups, 3 rats in each group, and the example compounds 10, 12, 24, 57, 61, 89, 90, 93, 94, 96 (10 mg/kg) were administered by intragastric administration. Fasting overnight before administration, and the fasting time was from 10 hours before administration to 4 hours after administration. Blood was collected at 0.25, 0.5, 1, 2, 4, 8 and 24 hours after administration. Small animal anesthesia machine was used for isoflurane anesthesia. After that, 0.3 mL of whole blood was collected from the fundus venous plexus and placed in a heparin anticoagulation tube. The sample was centrifuged at 4° C., 4000 rpm, for 5 minutes, and the plasma was transferred to a centrifuge tube, and stored at −80° C. until analysis. The plasma sample was extracted by protein precipitation method, and the extract was processed and analyzed by LC/MS/MS.

HDAC6, sequence (Q9UBN7 whole entry): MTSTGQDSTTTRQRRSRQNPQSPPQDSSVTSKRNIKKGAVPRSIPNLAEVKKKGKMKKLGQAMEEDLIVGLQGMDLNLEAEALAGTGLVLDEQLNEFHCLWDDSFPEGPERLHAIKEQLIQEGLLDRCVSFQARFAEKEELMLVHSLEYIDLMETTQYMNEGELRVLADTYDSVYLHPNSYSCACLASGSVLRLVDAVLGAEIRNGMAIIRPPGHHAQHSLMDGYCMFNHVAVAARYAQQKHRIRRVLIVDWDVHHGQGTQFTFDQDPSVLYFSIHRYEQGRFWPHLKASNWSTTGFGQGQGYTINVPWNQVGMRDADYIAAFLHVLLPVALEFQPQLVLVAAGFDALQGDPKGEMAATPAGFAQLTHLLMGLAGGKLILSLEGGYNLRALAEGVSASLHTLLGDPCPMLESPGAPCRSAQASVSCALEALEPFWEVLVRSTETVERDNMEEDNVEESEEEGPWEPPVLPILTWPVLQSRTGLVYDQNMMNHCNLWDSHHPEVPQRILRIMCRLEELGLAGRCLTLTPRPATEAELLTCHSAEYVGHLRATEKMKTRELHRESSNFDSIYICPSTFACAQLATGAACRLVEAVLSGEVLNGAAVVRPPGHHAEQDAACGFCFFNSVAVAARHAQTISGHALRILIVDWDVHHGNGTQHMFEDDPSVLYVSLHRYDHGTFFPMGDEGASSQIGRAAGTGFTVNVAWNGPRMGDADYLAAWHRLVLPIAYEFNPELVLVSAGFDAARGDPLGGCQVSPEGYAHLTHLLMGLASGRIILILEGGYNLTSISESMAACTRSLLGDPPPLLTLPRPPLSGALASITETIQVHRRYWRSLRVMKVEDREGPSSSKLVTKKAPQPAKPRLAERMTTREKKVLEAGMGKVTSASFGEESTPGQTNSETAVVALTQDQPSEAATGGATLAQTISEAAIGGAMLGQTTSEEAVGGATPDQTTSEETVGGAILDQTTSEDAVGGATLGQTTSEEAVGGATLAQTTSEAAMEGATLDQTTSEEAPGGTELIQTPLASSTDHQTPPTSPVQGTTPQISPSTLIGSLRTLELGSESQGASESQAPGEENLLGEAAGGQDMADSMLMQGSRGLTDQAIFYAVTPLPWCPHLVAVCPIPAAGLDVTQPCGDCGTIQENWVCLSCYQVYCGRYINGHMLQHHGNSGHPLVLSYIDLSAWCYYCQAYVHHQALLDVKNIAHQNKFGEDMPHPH

For orientation: IC50 means the concentration at which inhibition is half-maximal. Take `CC(=O)SCC(=O)NCCCCCOc1cc2nccc(Oc3ccc(NC(=O)C4(C(=O)Nc5ccc(F)cc5)CC4)cc3F)c2cc1C(N)=O` [Example 71, S-(2-((5-((6-carbamoyl-4-(2-fluoro-4-(1-((4-fluorophenyl)carbamoyl)cyclopropane-1-methylamido)phenoxy)quinolin-7-yl)oxy)pentyl)amino)-2-oxo-ethyl)thioacetate]: the IC50 at HDAC6 stood at 27 nM; at VEGFR2 (KDR), 4.6 nM.
As for `COc1cc2c(Oc3ccc(NC(=O)C4(C(=O)Nc5ccc(F)cc5)CC4)cc3F)ccnc2cc1OCCCCCCNC(=O)CS` [Example 64], the values for the IC50 on HDAC6 and at VEGFR2 (KDR) were 28.8 nM and 51 nM, respectively.
Regarding `CC(=O)SCC(=O)NCCCCCOc1cc2nccc(Oc3ccc(NC(=O)NC4CC4)c(Cl)c3)c2cc1C(N)=O` [Example 69, S-(2-((5-((6-carbamoyl-4-(3-chloro-4-(3-cyclopropylurea)phenoxy)quinolin-7-yl)oxy)pentyl)amino)-2-oxo-ethyl)thioacetate], the values for the IC50 on HDAC6 and on VEGFR2 (KDR) were 8.94 nM and 0.96 nM, respectively.
The corresponding values for `COc1cc2c(Oc3ccc(NC(=O)C4(C(=O)Nc5ccc(F)cc5)CC4)cc3F)ccnc2cc1OC/C=C/CCCCS` [Example 25, (E)-N-(3-fluoro-4-((7-((7-mercaptoheptyl-2-en-1-yl)oxy)-6-methoxyquinolin-4-yl)oxy)phenyl)-N-(4-fluorophenyl)cyclopropane-1,1-diformamide] are 34.8 nM and 79 nM.
In general, AUC(0-inf) refers to total exposure, with the tail of the curve extrapolated. A high value points to high exposure. For orientation: Cmax means the highest concentration seen after dosing. The Tmax is the time at which the peak concentration occurs. The term half-life denotes the time in which the quantity being followed falls by half. A higher half-life goes with slow loss. As to `COc1cc2c(Oc3ccc(NC(=O)C4(C(=O)Nc5ccc(F)cc5)CC4)cc3F)ccnc2cc1OCCCCCCCSC(C)=O` [Example 12, S-(7-((4-(2-fluoro-4-(1-((4-fluorophenyl)aminoformyl)cyclopropane-1-carboxamido)phenoxy)-6-methoxyquinolin-7-yl)oxy)heptyl)-acetylthioester], at HDAC6, the IC50 amounted to 67.8 nM. Moreover, in data set [1], the AUC(0-inf) turned out to be 1870 ng·h/mL, the Cmax is 946 ng/mL, the Tmax turned out to be 1 h and the half-life was 3 h.
As for `COc1cc2c(Oc3ccc(NC(=O)C4(C(=O)Nc5ccc(F)cc5)CC4)cc3F)ccnc2cc1OCCCCNC(=O)CS` [Example 62], the figures for the IC50 at HDAC6 and at VEGFR2 (KDR) were 16.3 nM and 17 nM, respectively.

The values are drawn from US12304898B2, “Quinolyl-containing compound and pharmaceutical composition, and use thereof” (PrimeGene (Beijing) Co., Ltd., priority 2019, dated 2025).
